Reference: patent US20140378541A1, “Synthetic Epigallocatechin Gallate (EGCG) Analogs” (WAYNE STATE UNIVERSITY, priority 2011, published 2014)

What was measured:
[1] = test system: CD44high/CD24low cell population of MDA-MB-231 cells; experiment: Flow cytometry of CD44high/CD24low cell population in MDA-MB-231 cells; type: cell-based, human; settings: 48 h
Procedure: The MDA-MB-231 cells were treated with the indicated concentrations of compounds 23 and 30 for 48 hours, followed by flow cytometry analysis. Columns show mean of three experiments; bars, SD; **, p<0.01; *, p<0.1.
The treated cells were washed once with phosphate-buffered saline (PBS) and then harvested with Cell Dissociation Buffer (enzyme-free, Invitrogen, cat. #13150-016). Detached cells were washed with PBS containing 1% FCS (a wash buffer), and resuspended in the wash buffer (1,000 cells/100 μl). The cells were stained with combinations of fluorochrome-conjugated monoclonal antibodies obtained from BD Biosciences (San Diego, Calif.) against human CD44 (FITC; cat. #555478) and CD24 (PE; cat. #555428) or their respective isotype controls at concentrations recommended by the manufacturer and incubated at 4° C. in the dark for 30 to 40 min. The labeled cells were washed in the wash buffer, then fixed in PBS containing 1% paraformaldehyde, and then analyzed on a FACSVantage (BD Biosciences) (Sheridan et al. Breast Cancer Res. (2006) 8, R59).
The flow cytometry analysis was performed as follows: The treated cells were washed once with phosphate-buffered saline (PBS) and then harvested with Cell Dissociation Buffer (enzyme-free, Invitrogen, cat. #13150-016). Detached cells were washed with PBS containing 1% FCS (a wash buffer), and resuspended in the wash buffer (1,000 cells/100 μl). The cell were stained with combinations of fluorochrome-conjugated monoclonal antibodies obtained from BD Biosciences (San Diego, Calif., USA) against human CD44 (FITC; cat. #555478) and CD24 (PE; cat. #555428) or their respective isotype controls at concentrations recommended by the manufacturer and incubated at 4° C. in the dark for 30 to 40 min. The labeled cells were washed in the wash buffer, then fixed in PBS containing 1% paraformaldehyde, and then analyzed on a FACSVantage (BD Biosciences) (Sheridan et al., Breast Cancer Res., 2006, 8: R59).
Metformin could selectively target cancer stem cells and reduce the CD44high/CD24low cell population in TNBC cells through activation of AMPK signaling (Hirsch et al., Cancer Research, 2009, 69: 7507-7511). To determine whether EGCG analogs 23 and 30 can reduce the stem cell population in the breast cancer cells, the human breast cancer MDA-MB-231 cells were treated with different concentrations of compounds 23 and 30 for 48 hours. The treated cells were stained with special antibodies against human CD44 (FITC), CD24 (PE) or their respective isotype controls, followed by washing, fixing and analysed by flow cytometry.

MDA-MB-231 cells = experiment: Combination with docetaxel or erlotinib, Western blot (PARP cleavage, p-EGFR), MDA-MB-231 cells; type: cell-based, human; settings: 24 h; for sensitization to docetaxel (apoptotic cell death, PARP cleavage): 20 μM plus 10 nM docetaxel; for sensitization to erlotinib (p-EGFR reduction, PARP cleavage): 20 μM plus 2.5 μM erlotinib
Procedure: In FIG. 9A, human breast cancer MDA-MB-231 cells were treated with 20 μM of EGCG, Pro-EGCG and EGCG analogs (compounds 5, 7, 23, 30 and 31), or 10 mM of metformin for 3 hrs. Cell lysates were analyzed by Western blot using antibodies of anti-AMPK, p-AMPK, PARP, p-EGFR, EGFR or β-actin. In FIG. 9B, human breast cancer MDA-MB-231 cells were treated with 20 μM of EGCG analogs 23 and 30, 10 nM of docetaxel alone, or combined treatment with compounds 23 and 30 plus docetaxel for 24 hrs. Cell lysates were analyzed by Western blot using antibodies of anti-AMPK, p-AMPK, PARP, p-EGFR, EGFR or β-actin. In FIG. 9C, cells were incubated in medium (0.1% BSA without FBS) containing 20 μM of 23, 30, 2.5 μM of Erlotinib (Eb) alone or the combinations as indicated for 24 hrs. Cell lyses were analyzed by Western blot using antibodies of anti-AMPK, p-AMPK, PARP, p-EGFR, EGFR or β-actin.
The Western blot analysis was performed as follows: A whole cell extract was prepared from the treated cells as described previously (Landis-Piwowar et al., Cancer research, 2007, 67: 4303-4310; Chen et al., Cancer research, 2007, 67: 1636-1644; Chen et al., Biochemical pharmacology, 2005, 69: 1421-1432). The cell extracts (30 μg) were then separated by an SDS-PAGE gel and transferred to nitrocellulose membranes. The membrances were blotted by specific antibodies including anti-AMPK, p-AMPK, EGFR, p-EGFR (Cell Signaling Tech. Danvers, Mass.), PARP (Enzo Life Sciences, Plymouth Meeting, Pa.), actin (Santa Cruz Biotechnology, Santa Cruz, Calif.). The membranes were visualized by enhanced chemiluminescence, as described previously (Landis-Piwowar et al., Cancer research, 2007, 67: 4303-4310; Chen et al., Cancer research, 2007, 67: 1636-1644; Chen et al., Biochemical pharmacology, 2005, 69: 1421-1432).
In FIG. 9A, human breast cancer MDA-MB-231 cells were treated with 20 μM of EGCG, Pro-EGCG and other EGCG analogs (compounds 5, 7, 23, 30 and 31), or 10 mM of metformin for 3 hrs. Cell lysates were analyzed by Western blot using antibodies of anti-AMPK, p-AMPK, PARP, p-EGFR, EGFR or β-actin. In FIG. 9B, human breast cancer MDA-MB-231 cells were treated with 20 μM of EGCG analogs 23 and 30, 10 nM of docetaxel alone, or combined treatment with compounds 23 and 30 plus docetaxel for 24 hrs.

O=C(O[C@H]1Cc2ccccc2C[C@H]1OC(=O)c1cc(O)c(Br)c(O)c1)c1cc(O)c(Br)c(O)c1 [Compound 23]
reduction of CD44high/CD24low cell population (in words) [1]: can reduce the CD44high/CD24low cell population | sensitization to docetaxel (apoptotic cell death, PARP cleavage) (MDA-MB-231 cells): sensitize these TNBC cells to Docetaxel | sensitization to erlotinib (p-EGFR reduction, PARP cleavage) (MDA-MB-231 cells): sensitize these TNBC cells to the EGFR inhibitor Erlotinib

Nc1ccc(C(=O)O[C@H]2Cc3ccccc3C[C@H]2OC(=O)c2ccc(N)cc2)cc1 [Compound 30]
decrease of the CD44high/CD24low population ([1]; 10 μM): 43.3% | decrease of the CD44high/CD24low population ([1]; 20 μM): 71.7% | reduction of CD44high/CD24low cell population (in words) [1]: can reduce the CD44high/CD24low cell population | sensitization to docetaxel (apoptotic cell death, PARP cleavage) (MDA-MB-231 cells): sensitize these TNBC cells to Docetaxel | sensitization to erlotinib (p-EGFR reduction, PARP cleavage) (MDA-MB-231 cells): sensitize these TNBC cells to the EGFR inhibitor Erlotinib
